The source made the active and inactive calls. The rule behind the calls is not given here.
Key:
[1] = target: Epidermal growth factor receptor (Homo sapiens, UniProt P00533); experiment: Inhibition of recombinant human wild-type N-terminal GST-His6-fused EGFR C-terminal domain (H672 to A1210) expressed in Sf9 insect cells using Poly(Glu:Tyr)4:1 as substrate measured after 60 mins in presence of [gamma-33P]-ATP by scintillation counting method
[2] = target: Serine/threonine-protein kinase Chk2 (Homo sapiens, UniProt O96017); experiment: Inhibition of recombinant human CHK2 measured after 60 mins in presence of [gamma-33P]-ATP by scintillation counting method
[3] = target: Fibroblast growth factor receptor 3 (Homo sapiens, UniProt P22607); experiment: Inhibition of recombinant human wild-type N-terminal GST-His6-fused FGFR3 C-terminal domain (R397 to T806 residues) expressed in Sf9 insect cells using TRK-C derived peptide as substrate measured after 60 mins in presence of [gamma-33P]-ATP by scintillation counting method
[4] = target: 3-phosphoinositide-dependent protein kinase 1 (Homo sapiens, UniProt O15530); experiment: Inhibition of recombinant human N-terminal His6-fused PDK1 (M1 to M460 residues) expressed in Sf9 insect cells using tetra(LRRWSLG) peptide as substrate measured after 60 mins in presence of [gamma-33P]-ATP by scintillation counting method
[5] = target: Mitogen-activated protein kinase kinase kinase 10 (Homo sapiens, UniProt Q02779); experiment: Inhibition of recombinant human MAP3K10 measured after 60 mins in presence of [gamma-33P]-ATP by scintillation counting method
[6] = target: Hepatocyte growth factor receptor (Homo sapiens, UniProt P08581); experiment: Inhibition of recombinant human wild-type N-terminal GST-His6-fused MET C-terminal domain (K956 to S1390 residues) expressed in Sf9 insect cells using TRK-C derived peptide as substrate measured after 60 mins in presence of [gamma-33P]-ATP by scintillation counting method
[7] = test system: IEC-6; experiment: Induction of apoptosis in rat IEC-6 cells assessed as increase in hypodiploid nuclei at 0.1 to 0.6 uM measured after 24 hrs by propidium iodide staining-based FACS analysis; type: cell-based; details: iec-6, 24 h
[8] = target: Vascular endothelial growth factor receptor 3 (Homo sapiens, UniProt P35916); experiment: Inhibition of recombinant human N-terminal GST-His6 fused VEGFR3 C-terminal domain (N799 to R1298 residues) expressed in baculovirus infected Sf9 insect cells using Poly(Glu:Tyr)4:1 as substrate measured after 60 mins in presence of [gamma-33P]-ATP by scintillation counting method
[9] = target: Dual specificity protein kinase CLK1 (Homo sapiens, UniProt P49759); experiment: Inhibition of recombinant human full-length N-terminal GST-His6-fused CLK1 (M1 to I484 residues) expressed in Sf9 cells using RS-peptide as substrate measured after 60 mins in presence of [gamma-33P]-ATP by scintillation counting method
[10] = target: Receptor tyrosine-protein kinase erbB-4 (Homo sapiens, UniProt Q15303); experiment: Inhibition of recombinant human N-terminal GST-His6-fused ERBB4 C-terminal domain (R676 to V1307 residues) expressed in Sf9 cells using Poly(Glu:Tyr)4:1 as substrate measured after 60 mins in presence of [gamma-33P]-ATP by scintillation counting method
[11] = test system: HeLa; experiment: Induction of apoptosis in human HeLa cells assessed as increase in hypodiploid nuclei at 0.3 to 0.6 uM measured after 24 hrs by propidium iodide staining-based FACS analysis; type: functional, cell-based
[12] = test system: HeLa; experiment: Down regulation of ERK expression in human HeLa cells at 0.1 to 0.6 uM after 24 hrs by FACS analysis; type: functional, cell-based
[13] = target: Focal adhesion kinase 1 (Homo sapiens, UniProt Q05397); experiment: Inhibition of recombinant human N-terminal GST-fused FAK (2 to 1052 residues) expressed in Sf9 insect cells using Poly(Glu/Tyr)4:1 as substrate measured after 60 mins in presence of [gamma-33P]-ATP by scintillation counting method
[14] = target: Casein kinase II subunit alpha' (Homo sapiens, UniProt P19784); experiment: Inhibition of recombinant human full-length N-terminal GST-His6-fused CK2-alpha2 (M1 to R350 residues) expressed in Sf9 insect cells using casein as substrate measured after 60 mins in presence of [gamma-33P]-ATP by scintillation counting method
[15] = test system: IEC-6; experiment: Induction of apoptosis in rat IEC-6 cells assessed as increase in caspase 3 level at 0.1 to 0.6 uM after 24 hrs by FACS analysis; type: cell-based; details: iec-6, 24 h
[16] = target: Mitogen-activated protein kinase kinase kinase 1 (Homo sapiens, UniProt Q13233); experiment: Inhibition of recombinant human N-terminal 4xFLAG-tagged/C-terminal His8 fused MAP3K1 C-terminal domain (M1193 to W1512 residues) expressed in Sf9 insect cells using Bio-RS-Peptide as substrate measured after 60 mins in presence of [gamma-33P]-ATP by scintillation counting method
[17] = target: Casein kinase II subunit alpha (Homo sapiens, UniProt P68400); experiment: Inhibition of recombinant human full-length N-terminal GST-fused CK2-alpha1 (M1 to Q391 residues) expressed in Sf9 insect cells using casein as substrate measured after 60 mins in presence of [gamma-33P]-ATP by scintillation counting method
[18] = target: Fibroblast growth factor receptor 4 (Homo sapiens, UniProt P22455); experiment: Inhibition of recombinant human N-terminal GST-His6-fused FGFR4 (R391 to T802 residues) expressed in baculovirus infected Sf9 cells using Poly(Glu:Tyr)4:1 as substrate measured after 60 mins in presence of [gamma-33P]-ATP by scintillation counting method
[19] = target: Platelet-derived growth factor receptor alpha (Homo sapiens, UniProt P16234); experiment: Inhibition of recombinant human wild-type N-terminal GST-His6-fused PDGFR-alpha C-terminal domain (Q551 to L1089 residues) expressed in Sf9 insect cells using TRK-C derived peptide as substrate measured after 60 mins in presence of [gamma-33P]-ATP by scintillation counting method
[20] = test system: HeLa; experiment: Inhibition of ERK phosphorylation in human HeLa cells at 0.1 to 0.6 uM after 24 hrs by FACS analysis; type: cell-based
[21] = target: Platelet-derived growth factor receptor beta (Homo sapiens, UniProt P09619); experiment: Inhibition of recombinant human N-terminal GST-His6-fused PDGFR-beta C-terminal domain (R561 to L1106 residues) expressed in Sf9 insect cells using Poly(Ala,Glu,Lys,Tyr)6:2:5:1 as substrate measured after 60 mins in presence of [gamma-33P]-ATP by scintillation counting method
[22] = target: Mitogen-activated protein kinase 1 (Homo sapiens, UniProt P28482); experiment: Inhibition of recombinant human full-length untagged ERK2 (M1 to S360 residues) expressed in Escherichia coli using recombinant ELK1 as substrate measured after 60 mins in presence of [gamma-33P]-ATP by scintillation counting method
[23] = target: Mitogen-activated protein kinase 14 (Homo sapiens, UniProt Q16539); experiment: Inhibition of recombinant human full-length untagged p38-alpha (M1 to S360 residues) expressed in Escherichia coli cells using recombinant ATF2 as substrate measured after 60 mins in presence of [gamma-33P]-ATP by scintillation counting method

- IC50 [1]: 10 µM
- IC50 [2]: 79 µM
- IC50 [3]: 6.3 µM
- IC50 [4]: 11 µM
- IC50 [5]: 18 µM
- IC50 [6]: 61 µM
- IC50 [8]: > 100 µM
- IC50 [9]: 13 µM
- IC50 [10]: 7.9 µM
- IC50 [13]: > 100 µM
- IC50 [14]: 99 µM
- IC50 [16]: 66 µM
- IC50 [17]: > 100 µM
- IC50 [18]: 11 µM
- IC50 [19]: 48 µM
- IC50 [21]: 81 µM
- IC50 [22]: 66 µM
- IC50 [23]: 88 µM
SMILES: CN(CCc1ccc(-c2ccccc2)cc1)Cc1cn(C)c2ccc(C(=O)Nc3ccc(F)cc3)cc12
- Activity [7]: Toxic
- Activity [11]: Active
- Activity [12]: Active
- Activity [15]: Toxic
- inhibition [20]: Active

— ChEMBL document CHEMBL4340507, “Identification of an indol-based multi-target kinase inhibitor through phenotype screening and target fishing using inverse virtual screening approach” (Eur J Med Chem, 2019)
